Measured values reported in US6565859B1, “Galenical formulations” (Novartis AG, priority 1993, dated 2003).

Key:
[1] = Pharmacokinetics in rats after gastric intubation, blood levels by ELISA with rapamycin specific antibodies; settings: Example 3; rapamycin given in formulations A and B, 10 mg per rat, oral
Protocol: (§1) Formulation A is an emulsion preconcentrate and formulation B is a microemulsion preconcentrate. 6 male Wistar rats of mean body weight of 300 g are used per form. One day before treatment, food is withdrawn from the rats but the rats are permitted free access to water. The rats are then anesthetized by intraperitoneal injection of 2×1 ml 20% urethane and a permanent catheter is inserted into the right vena jugularis to permit blood sampling. 500 ml/animal of the formulation is administered by gastric intubation 20 hours after the surgery. A total dose of 10 mg of drug per animal is administered. Blood samples of 0.7 ml are taken from the jugular catheter of each animal 15 minutes before drug administration and then 0.17, 0.5, 1, 1.5, 2, 3, 5 and 8 hours after drug administration. The samples are kept in heparinized tubes and are analysed by means of ELISA using microtitre plates coated with rapamycin specific antibodies. The animals are killed immediately after taking the last blood sample.

in vivo = settings: male, Wistar, rat, whole blood, po, 10 mg
Protocol: as §1

- absorption (result in words) [1]: well absorbed
- Cmax (in vivo): 2670 to 3400 ng/mL
SMILES: CO[C@H]1C[C@@H]2CC[C@@H](C)[C@@](O)(O2)C(=O)C(=O)N2CCCC[C@H]2C(=O)O[C@H]([C@H](C)C[C@@H]2CC[C@@H](O)[C@H](OC)C2)CC(=O)[C@H](C)/C=C(\C)[C@@H](O)[C@@H](OC)C(=O)[C@H](C)C[C@H](C)/C=C/C=C/C=C/1C [rapamycin, Rapamycin]
